Data reported in PubChem BioAssay AID248 (DTP/NCI, 2004).
Where “and” joins values, the source holds several entries; their conditions need not be identical. Equal values may be shown once. Inconclusive results and toxic doses are left out. Cut-off read from the data, not from the text of the source: active = T/C of 150% or more; inactive = T/C below 125%.

System: L1210 leukemia ip in BDF1 mice, survival T/C
Experiment: NCI In Vivo Anticancer Drug Screen. Data for tumor model L1210 Leukemia (intraperitoneal) in B6D2F1 (BDF1) mice
Settings: endpoint: mean survival time, higher = longer survival
In short: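 Value reflects the ratio of survival in compound-treated mice to survival in vehicle-treated controls, with both groups carrying the same transplanted tumor.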

[1] = dose: 100.0 mg/kg/injection, schedule: Q04DX003 (ip), vehicle: Klucel (hydroxypropylcellulose) (HPC)
[2] = dose: 200.0 mg/kg/injection, schedule: Q04DX003 (ip), vehicle: Klucel (hydroxypropylcellulose) (HPC)
[3] = dose: 100.0 mg/kg/injection, schedule: Q01DX001 (ip), vehicle: Klucel (hydroxypropylcellulose) (HPC)
[4] = dose: 200.0 mg/kg/injection, schedule: Q01DX001 (ip), vehicle: Klucel (hydroxypropylcellulose) (HPC)
[5] = dose: 400.0 mg/kg/injection, schedule: Q01DX001 (ip), vehicle: Klucel (hydroxypropylcellulose) (HPC)
[6] = dose: 100.0 mg/kg/injection, schedule: Q04DX002 (ip), vehicle: Klucel (hydroxypropylcellulose) (HPC)
[7] = dose: 200.0 mg/kg/injection, schedule: Q04DX002 (ip), vehicle: Klucel (hydroxypropylcellulose) (HPC)
[8] = dose: 400.0 mg/kg/injection, schedule: Q04DX002 (ip), vehicle: Klucel (hydroxypropylcellulose) (HPC)
[9] = dose: 75.0 mg/kg/injection, schedule: Q01DX001 (ip), vehicle: saline
[10] = dose: 150.0 mg/kg/injection, schedule: Q01DX001 (ip), vehicle: saline
[11] = dose: 300.0 mg/kg/injection, schedule: Q01DX001 (ip), vehicle: saline
[12] = dose: 400.0 mg/kg/injection, schedule: Q04DX003 (ip), vehicle: Klucel (hydroxypropylcellulose) (HPC)
[13] = dose: 100.0 mg/kg/injection, schedule: Q04DX003 (ip), vehicle: saline with Tween-80
[14] = dose: 50.0 mg/kg/injection, schedule: Q01DX001 (ip), vehicle: carboxymethylcellulose (CMC)
[15] = dose: 100.0 mg/kg/injection, schedule: Q01DX001 (ip), vehicle: carboxymethylcellulose (CMC)
[16] = dose: 200.0 mg/kg/injection, schedule: Q01DX001 (ip), vehicle: carboxymethylcellulose (CMC)

Measured: T/C

CN/N=C/c1ccc(C(=O)NC(C)C)cc1
inactive: dose: 25.0 mg/kg/injection, schedule: Q04DX003 (ip), vehicle: Klucel (hydroxypropylcellulose) (HPC) 98 % of control | dose: 50.0 mg/kg/injection, schedule: Q04DX003 (ip), vehicle: Klucel (hydroxypropylcellulose) (HPC) 102 % of control | [1] 102 % of control | [2] 109 % of control

COc1c(Cl)c(C)c(Cl)c(C)c1C#CC(=O)O
inactive: [3] 92 % of control | [1] 95 % of control | [4] 97 % of control | [2] 92 % of control | [5] 101 % of control

CC(F)(F)C(F)(F)C(=O)CC(=O)C(F)(F)F.CC(F)(F)C(F)(F)C(=O)CC(=O)C(F)(F)F.[Cu]
inactive: dose: 6.25 mg/kg/injection, schedule: Q01DX009 (ip), vehicle: saline with Tween-80 88 % of control | dose: 6.25 mg/kg/injection, schedule: Q04DX003 (ip), vehicle: saline with Tween-80 91 % of control | dose: 12.5 mg/kg/injection, schedule: Q01DX009 (ip), vehicle: saline with Tween-80 101 % of control | dose: 12.5 mg/kg/injection, schedule: Q04DX003 (ip), vehicle: saline with Tween-80 95 % of control | dose: 25.0 mg/kg/injection, schedule: Q01DX009 (ip), vehicle: saline with Tween-80 90 % of control | dose: 25.0 mg/kg/injection, schedule: Q04DX003 (ip), vehicle: saline with Tween-80 95 % of control

COc1ccc2cc1Oc1ccc(cc1)CC1c3c(cc(OC)c4c3Oc3cc5c(cc3O4)CCNC5C2)CCN1C (stereo not given)
inactive: [6] 98 % of control | [7] 98 % of control | [8] 91 % of control

Cn1cc(C(=Nc2ccccc2)Nc2ccccc2)c2ccccc21
inactive: [9] 94 % of control | [10] 94 % of control | [11] 89 % of control

O=C(NC(=O)C(Cl)Cl)Nc1cccc2c1-c1ccccc1C2
inactive: [3] 94 % of control | dose: 100.0 mg/kg/injection, schedule: Q01DX009 (ip), vehicle: Klucel (hydroxypropylcellulose) (HPC) 108 % of control | [1] 88 % of control | [4] 97 % of control | dose: 200.0 mg/kg/injection, schedule: Q01DX009 (ip), vehicle: Klucel (hydroxypropylcellulose) (HPC) 100 % of control | [2] 92 % of control | [5] 92 % of control | [12] 93 % of control

CN1CCN(Cn2cnc3c2c(=O)n(C)c(=O)n3C)CC1
inactive: [9] 92 % of control | [10] 100 % of control | [11] 122 % of control

S=P(c1cccs1)(c1cccs1)c1cccs1
inactive: [13] 93 % of control | dose: 200.0 mg/kg/injection, schedule: Q04DX003 (ip), vehicle: saline with Tween-80 96 % of control | dose: 400.0 mg/kg/injection, schedule: Q04DX003 (ip), vehicle: saline with Tween-80 86 % of control

O=C1CCCN(C2CCCCC2)CCC1O (stereo not given)
inactive: dose: 100.0 mg/kg/injection, schedule: Q04DX003 (ip), vehicle: acetone 96 % of control | dose: 200.0 mg/kg/injection, schedule: Q04DX003 (ip), vehicle: acetone 93 % of control

CN(C)CCSCC(OC(=O)c1ccccc1)c1ccccc1 (stereo not given)
inactive: [13] 94 % of control

Br/C(=N\Nc1nn[nH]n1)c1ccccc1
inactive: dose: 100.0 mg/kg/injection, schedule: Q01DX009 (ip), vehicle: saline with Tween-80 93 % of control | dose: 200.0 mg/kg/injection, schedule: Q01DX009 (ip), vehicle: saline with Tween-80 98 % of control | dose: 400.0 mg/kg/injection, schedule: Q01DX009 (ip), vehicle: saline with Tween-80 95 % of control

COc1ccc([N+](=O)[O-])cc1NC(=O)CCCCCCCCC(=O)Nc1cc([N+](=O)[O-])ccc1OC
inactive: dose: 100.0 mg/kg/injection, schedule: Q04DX002 (ip), vehicle: saline 102 % of control | dose: 200.0 mg/kg/injection, schedule: Q04DX002 (ip), vehicle: saline 102 % of control | dose: 400.0 mg/kg/injection, schedule: Q04DX002 (ip), vehicle: saline 109 % of control

Nc1ncnc2c1ncn2C1OC(C(O)CO)C(O)C1N (stereo not given)
inactive: [14] 111 % of control | [15] 105 % of control | [16] 108 % of control | dose: 400.0 mg/kg/injection, schedule: Q01DX001 (ip), vehicle: carboxymethylcellulose (CMC) 108 % of control

O=C(O)C(Cc1cccs1)Cc1cccs1
inactive: dose: 50.0 mg/kg/injection, schedule: Q04DX003 (ip), vehicle: carboxymethylcellulose (CMC) 120 % of control | dose: 100.0 mg/kg/injection, schedule: Q04DX003 (ip), vehicle: carboxymethylcellulose (CMC) 104 % of control | dose: 200.0 mg/kg/injection, schedule: Q04DX003 (ip), vehicle: carboxymethylcellulose (CMC) 108 % of control

COC(=O)n1nc2ccccc2c1N
inactive: dose: 50.0 mg/kg/injection, schedule: Q01DX009 (ip), vehicle: saline 96 % of control | dose: 100.0 mg/kg/injection, schedule: Q01DX009 (ip), vehicle: saline 96 % of control | dose: 200.0 mg/kg/injection, schedule: Q01DX009 (ip), vehicle: saline 93 % of control

O=C(O)C1C2C=CCC1CC2 (stereo not given)
inactive: dose: 100.0 mg/kg/injection, schedule: Q04DX003 (ip), vehicle: alcohol 100 % of control | dose: 200.0 mg/kg/injection, schedule: Q04DX003 (ip), vehicle: alcohol 103 % of control | dose: 400.0 mg/kg/injection, schedule: Q04DX003 (ip), vehicle: alcohol 100 % of control

CCOc1cc(/C=N\Nc2nnc(C)n2N)c(C)cc1N(CCCl)CCCl
inactive: dose: 10.5 mg/kg/injection, schedule: Q01DX015 (ip), vehicle: carboxymethylcellulose (CMC) 119 % of control | dose: 18.0 mg/kg/injection, schedule: Q01DX015 (ip), vehicle: carboxymethylcellulose (CMC) 109 % of control | dose: 44.0 mg/kg/injection, schedule: Q01DX001 (ip), vehicle: carboxymethylcellulose (CMC) 110 % of control | [14] 120 % of control | dose: 67.0 mg/kg/injection, schedule: Q01DX001 (ip), vehicle: carboxymethylcellulose (CMC) 110 % of control and 116 % of control | [15] 111 % of control and 124 % of control | dose: 150.0 mg/kg/injection, schedule: Q01DX001 (ip), vehicle: carboxymethylcellulose (CMC) 105 % of control and 90 % of control | [16] 105 % of control

BrCc1cccc(C[P+](c2ccccc2)(c2ccccc2)c2ccccc2)c1
inactive: dose: 5.0 mg/kg/injection, schedule: Q01DX001 (ip), vehicle: saline 112 % of control | dose: 10.0 mg/kg/injection, schedule: Q01DX001 (ip), vehicle: saline 114 % of control | dose: 20.0 mg/kg/injection, schedule: Q01DX001 (ip), vehicle: saline 114 % of control | dose: 50.0 mg/kg/injection, schedule: Q01DX001 (ip), vehicle: saline 110 % of control

O=C(C[n+]1ccc(/C=N\O)cc1)c1ccc(-c2ccc(C(=O)C[n+]3ccc(/C=N/O)cc3)cc2)cc1
inactive: [6] 103 % of control | [7] 100 % of control | [8] 92 % of control

CN(Cc1ccccc1)c1cc(=O)[nH]c(=O)[nH]1
inactive: [1] 102 % of control | [2] 96 % of control | [12] 100 % of control
